test: Toxicity in brine shrimp; type: organism-based; conditions: artemia, in vivo

`CC(=O)O[C@H]1C[C@H](O)[C@@]23C(=O)[C@@H](C)[C@@H]1[C@]2(C)[C@@H](C)CC[C@@H]3O` [LEMNAFRICANOL] and `CC(=O)[C@H]1C[C@H](O)C2=CCC[C@H](C)[C@@]2(C)[C@H]1C(C)=O` [NARDOSINANOL G] are within 1.5-fold of each other in LC50: 320 nM for the first, 350 nM for the second.

`C[C@@H](C=O)[C@H]1C(=O)CCC2=C[C@@H](O)C[C@H](C)[C@]21C` [NARDOSINANOL C] showed an LC50 of 4000 nM.

Reference: ChEMBL document CHEMBL1144803, “Nardosinanols A-I and lemnafricanol, sesquiterpenes from several soft corals, Lemnalia sp., Paralemnalia clavata, Lemnalia africana, and Rhytisma fulvum fulvum” (J Nat Prod, 2008)
